The record followed here is publication PMC2956513, “Novel tricyclic pyrazole BRAF inhibitors with imidazole or furan central scaffolds” (Bioorganic & Medicinal Chemistry, 2010).

One data set has as its target V600EBRAF (Homo sapiens, UniProt P15056, V600E). The experiment in a line: V600EBRAF kinase assay (MEK1/2 phosphorylation as endpoint). The following applies: for IC50: isolated full length V600EBRAF kinase activity; for BRAF activity in words: BRAF IC50 assay. Format: biochemical. Here is the method:
(§1) The biological activities of compounds 1a–p were assessed in three assays: • (1) Inhibition of the isolated ^V600EBRAF kinase activity (IC50 BRAF), measuring MEK1/2 phosphorylation as the endpoint.[15] […] We measured the IC50 BRAF values in this paper, since they represent the inhibition of BRAF function which we consider more meaningful than the binding of inhibitor to BRAF. • (2) Inhibition of ^V600EBRAF-dependent ERK phosphorylation in WM266.4 melanoma cells (IC50 pERK). • (3) Growth inhibition of WM266.4 melanoma cells measured by sulforhodamine-B (GI50 SRB).
(§2) These assays have been described by Niculescu-Duvaz et al.[15]

The test system of data set [1] is V600EBRAF-dependent ERK phosphorylation in WM266.4 melanoma cells. The experiment in a line: Phospho-ERK IC50 assay in WM266.4 cells. The conditions noted are these: for IC50: Homo sapiens, WM 266-4, 6 h incubation, read-out: IC50 ppERK. It is filed as cell-based, human. Here is the method: as §1
To determine the effect of compounds on BRAF activity in cells, WM266.4 cells were seeded at a density of 3 × 10^4 cells per well of a 96 well plate. The following day, test compounds were diluted into growth medium to 2× the desired final concentration and then added directly to the cells. After a 6 h incubation, the medium was removed and cells were fixed and permeabilized in 4% formaldehyde, 0.1% triton X-100 in PBS for 30 min. The wells were then blocked with 5% milk in PBS for 30 min at room temperature, followed by the addition of an antibody for phospho-ERK1/2 (Sigma, Dorset, UK) at […] in blocking solution. Plates were incubated for 3 h with shaking. Plates were washed three times with 0.1% Tween 20 using an ELx50 plate washer (BioTek, Winooski, USA). […] of a Europium-labelled anti-mouse secondary antibody (Perkin Elmer, Turku, Finland) was added to the wells in DELFIA assay buffer for 1 h. Plates were washed again and Enhancement solution was added to the wells and time resolved fluorescence was measured as instructed by the manufacturer after 20 min using a Spectramax M5 plate reader (Molecular Devices, Berkshire, UK). The plates were washed again and BCA protein assay reagent (Sigma, Dorset, UK) was added to the wells and incubated for 30 min at 37 °C. Absorbance at 570 nm was measured using a plate reader and used to normalize the fluorescence data. Inhibition of ERK phosphorylation was determined as a percentage of DMSO-treated cells and IC50 values were calculated using Prism (GraphPad Software, San Diego, USA).

The next data set has as its system WM266.4 melanoma cells. The experiment in a line: Growth inhibition of WM266.4 cells by sulforhodamine-B (SRB). Format: cell-based, human. The following applies: for GI50 / GI50 SRB activity in words: WM266.4 cells; for GI50: sulforhodamine-B. Here is the method:
as §1, §2

For a further data set, the target named is BRAF (Homo sapiens, UniProt P15056). The experiment in a line: BRAF fluorescent ligand binding assay. The conditions noted are these: alternative BRAF fluorescent ligand binding assay.
BRAF, sequence (P15056 whole entry): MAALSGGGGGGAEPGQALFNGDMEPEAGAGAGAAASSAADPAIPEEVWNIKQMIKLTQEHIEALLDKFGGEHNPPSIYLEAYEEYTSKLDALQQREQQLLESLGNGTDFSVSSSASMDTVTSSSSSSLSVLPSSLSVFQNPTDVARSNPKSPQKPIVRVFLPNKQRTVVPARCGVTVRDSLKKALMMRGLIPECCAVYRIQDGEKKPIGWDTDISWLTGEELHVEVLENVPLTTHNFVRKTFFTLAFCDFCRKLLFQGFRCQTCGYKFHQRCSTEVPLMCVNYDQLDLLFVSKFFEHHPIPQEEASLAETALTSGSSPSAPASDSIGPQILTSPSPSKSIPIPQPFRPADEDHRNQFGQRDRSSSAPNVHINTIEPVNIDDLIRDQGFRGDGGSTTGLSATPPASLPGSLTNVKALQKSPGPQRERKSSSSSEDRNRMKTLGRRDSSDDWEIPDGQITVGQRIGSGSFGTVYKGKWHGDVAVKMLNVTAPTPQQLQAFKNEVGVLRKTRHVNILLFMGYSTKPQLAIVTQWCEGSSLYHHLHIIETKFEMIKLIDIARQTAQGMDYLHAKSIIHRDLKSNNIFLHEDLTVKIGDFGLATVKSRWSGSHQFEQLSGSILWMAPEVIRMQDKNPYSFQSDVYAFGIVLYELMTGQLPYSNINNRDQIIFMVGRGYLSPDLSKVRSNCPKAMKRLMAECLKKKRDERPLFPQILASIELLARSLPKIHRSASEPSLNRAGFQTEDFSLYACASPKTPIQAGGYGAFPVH
Data set [2] can be described thus: PK assessment in mice after intraperitoneal administration. Format: in vivo, mouse. The following applies: CD1 nu/nu female mice, intraperitoneal 4 mg/kg, cassette dosing. Here is the method:
The apparent clearance, half-life (t1/2) and maximal plasma concentration of a representative tricyclic pyrazole, compound 1h, were determined in vivo in CD1 nu/nu female mice following an intraperitoneal administration of 1h.
Female Crl:CD1-Foxn1nu mice at least six weeks of age bearing mutant BRAF WM266.4 human tumor xenografts were used for the PK analyses. The mice were dosed intraperitoneally (4 mg/kg, equivalent to ca. 8 μmol/kg, 10 ml/kg, in 10% ethanol:40% PEG:50% Gelofusine v/v) in a cassette with 4 other compounds. Samples were taken at 8 time-points between 15 min and 24 h. Three mice were utilized per time-point. They were placed under isoflurane anaesthesia and blood for plasma preparation was taken by terminal cardiac puncture into heparinized syringes. Plasma samples were snap frozen in liquid nitrogen and then stored at −70 °C prior to analysis. All procedures involving animals were performed in accordance with national Home Office regulations under the Animals (Scientific Procedures) Act 1986 and within guidelines set out by the Institute’s Animal Ethics Committee and the United Kingdom Coordinating Committee for Cancer Research’s ad hoc Committee on the Welfare of Animals in Experimental Neoplasia.

SMILES strings stand for the structures.

V600EBRAF, sequence (P15056 whole entry V600E): as the sequence (P15056 whole entry) above, with V600E counted along it

For `CN(C)CCOc1ccc(-c2nc(-c3ccc(-c4cc[nH]n4)cc3)c(-c3ccncc3)[nH]2)cc1` [1a, Dimethyl-[2-(4-{5-[4-(1H-pyrazol-3-yl)-phenyl]-4-pyridin-4-yl-1H-imidazol-2-yl}-phenoxy)-ethyl]-amine], the results for the 50% inhibitory concentration (IC50) (on V600EBRAF; in data set [1]) were 1.6 µM and 5.8 µM, respectively. Moreover, the GI50 in the data set with WM266.4 melanoma cells (Homo sapiens, WM 266-4) stood at 7.4 µM.

Turning to `Cc1c[nH]nc1-c1ccc(-c2nc(-c3ccc(OCCN(C)C)cc3)[nH]c2-c2ccncc2)cc1` [1b, Dimethyl-[2-(4-{5-[4-(4-methyl-1H-pyrazol-3-yl)-phenyl]-4-pyridin-4-yl-1H-imidazol-2-yl}-phenoxy)-ethyl]-amine], the IC50 came to 1.2 µM against V600EBRAF and 2.02 µM in data set [1]. Halving of growth with WM266.4 melanoma cells (Homo sapiens, WM 266-4) (GI50) required 3.9 µM.

For `CN(C)CCOc1ccc(-c2nc(-c3ccc(-c4n[nH]cc4C#N)cc3)c(-c3ccncc3)[nH]2)cc1` [1c, 3-(4-{2-[4-(2-Dimethylamino-ethoxy)-phenyl]-5-pyridin-4-yl-3H-imidazol-4-yl}-phenyl)-1H-pyrazole-4-carbonitrile], the IC50 against V600EBRAF is over 10 µM; in data set [1], over 100 µM. Also, the GI50 in the data set with WM266.4 melanoma cells (Homo sapiens, WM 266-4) was 11 µM.

In the case of `CN(C)CCOc1ccc(-c2nc(-c3ccc(-c4n[nH]cc4Cl)cc3)c(-c3ccncc3)[nH]2)cc1` [1d, [2-(4-{5-[4-(4-Chloro-1H-pyrazol-3-yl)-phenyl]-4-pyridin-4-yl-1H-imidazol-2-yl}-phenoxy)-ethyl]-dimethyl-amine], the IC50 against V600EBRAF is 3.7 µM; in data set [1], 10 µM. Moreover, the GI50 in the data set with WM266.4 melanoma cells (Homo sapiens, WM 266-4) amounted to 4.1 µM.

Take `CN(C)CCOc1ccc(-c2nc(-c3ccc4c(c3)CCc3cn[nH]c3-4)c(-c3ccncc3)[nH]2)cc1` [1e, (2-{4-[5-(4,5-Dihydro-2H-benzo[g]indazol-7-yl)-4-pyridin-4-yl-1H-imidazol-2-yl]-phenoxy}-ethyl)-dimethyl-amine]: the IC50 was found to be 1.84 µM against V600EBRAF and 5.8 µM in data set [1].

For `CN(C)CCOc1ccc(-c2nc(-c3ccc4c(ccc5cn[nH]c54)c3)c(-c3ccncc3)[nH]2)cc1` [1f, (2-{4-[4-(1H-Benzo[g]indazol-7-yl)-5-pyridin-4-yl-1H-imidazol-2-yl]-phenoxy}-ethyl)-dimethyl-amine], the IC50 at V600EBRAF was 1.71 µM; in data set [1], 25 µM. The same compound displayed a GI50 with WM266.4 melanoma cells (Homo sapiens, WM 266-4) of 3.3 µM.

Regarding `CN(C)CCOc1ccc(-c2nc(-c3ccc4c(c3)CC3CC(=O)NN=C43)c(-c3ccncc3)[nH]2)cc1` (centres unmarked) [1g, 7-{2-[4-(2-Dimethylamino-ethoxy)-phenyl]-5-pyridin-4-yl-1H-imidazol-4-yl}-2,4,4a,5-tetrahydro-indeno[1,2-c]pyridazin-3-one], the figures for the IC50 (against V600EBRAF; in data set [1]) were over 10 µM and 100 µM, respectively. Further, the GI50 with WM266.4 melanoma cells (Homo sapiens, WM 266-4) was 8.9 µM.

As for `CN(C)CCOc1ccc(-c2nc(-c3ccc4c(c3)Cc3cn[nH]c3-4)c(-c3ccncc3)[nH]2)cc1` [1h, (2-{4-[5-(2,4-Dihydro-indeno[1,2-c]pyrazol-6-yl)-4-pyridin-4-yl-1H-imidazol-2-yl]-phenoxy}-ethyl)-dimethyl-amine], the IC50 against V600EBRAF is 0.23 µM; in data set [1], 1.09 µM; in the data set on WM266.4 melanoma cells (Homo sapiens, WM 266-4, SRB cellular IC50, value in PK text) it was 1.1 µM. The same compound had a GI50 in the data set with WM266.4 melanoma cells (Homo sapiens, WM 266-4) of 1.15 µM. In addition, the Kd on BRAF turned out to be 0.0061 µM. Also, in data set [2] (CD1 nu/nu (Crl:CD1-Foxn1nu), mouse, ip, plasma, read-out: half-life (T1/2) (converted)), the half-life is 3.9 h. For the same compound, the Cmax in data set [2] (CD1 nu/nu (Crl:CD1-Foxn1nu), mouse, ip, plasma, read-out: maximal plasma concentration (Cmax)) turned out to be 5.8 µM. Besides, the “plasma clearance (CL)” value in data set [2] (apparent clearance) is reported as 11 mL/min/kg.

For the compound `CN(C)CCOc1ccc(-c2nc(-c3ccc4c(c3)Cc3nn[nH]c3-4)c(-c3ccncc3)[nH]2)cc1` [1i, (2-{4-[5-(3,8-Dihydro-indeno[1,2-d] [1,2,3]triazol-6-yl)-4-pyridin-4-yl-1H-imidazol-2-yl]-phenoxy}-ethyl)-dimethyl-amine], on V600EBRAF, the “BRAF activity in words” value is “inactive” and the IC50 is over 10 µM. The IC50 in data set [1] stood at 4.4 µM.

Consider `CN1CCN(c2ccc(-c3nc(-c4ccc5c(c4)Cc4cn[nH]c4-5)c(-c4ccncc4)[nH]3)cc2)CC1` [1j, 6-{2-[4-(4-Methyl-piperazin-1-yl)-phenyl]-5-pyridin-4-yl-3H-imidazol-4-yl}-2,4-dihydro-indeno[1,2-c]pyrazole], for which, on V600EBRAF, the “BRAF activity in words” value is on record as “submicromolar activity” and 0.24 µM corresponded to half-maximal inhibition (IC50). In data set [1], the “IC50 ppERK activity in words” value is reported as “submicromolar activity” and the IC50 amounted to 0.58 µM. This compound also came in with a GI50 with WM266.4 melanoma cells (Homo sapiens, WM 266-4) of 0.87 µM. The “GI50 SRB activity in words” value in the data set on WM266.4 melanoma cells is “submicromolar activity”.

As for `c1cc(-c2[nH]c(C3CCNCC3)nc2-c2ccc3c(c2)Cc2cn[nH]c2-3)ccn1` [1k, 6-(2-Piperidin-4-yl-5-pyridin-4-yl-3H-imidazol-4-yl)-2,4-dihydro-indeno[1,2-c]pyrazole], the half-inhibitory concentration (IC50) against V600EBRAF was found to be 1.33 µM; in data set [1], 4.9 µM. In addition, in the data set with WM266.4 melanoma cells (Homo sapiens, WM 266-4), growth was halved (GI50) at 36 µM.

`CN(C)CCN1CCN(C(=O)c2cc(-c3ccc4c(c3)Cc3cn[nH]c3-4)c(-c3ccncc3)o2)CC1` [1l, [4-(2,4-Dihydro-indeno[1,2-c]pyrazol-6-yl)-5-pyridin-4-yl-furan-2-yl]-[4-(2-dimethylamino-ethyl)-piperazin-1-yl]-methanone]: the IC50 is 3.6 µM against V600EBRAF and 0.74 µM in data set [1]. The compound also gave a GI50 in the data set on WM266.4 melanoma cells (Homo sapiens, WM 266-4) of 1.61 µM.

On V600EBRAF, `O=C(c1cc(-c2ccc3c(c2)Cc2cn[nH]c2-3)c(-c2ccncc2)o1)N1CCOCC1` [1m, [4-(2,4-Dihydro-indeno[1,2-c]pyrazol-6-yl)-5-pyridin-4-yl-furan-2-yl]-morpholin-4-yl-methanone] showed an IC50 of 2.15 µM. In data set [1], the “IC50 ppERK activity in words” value is “submicromolar activity” and the 50% inhibitory concentration (IC50) was found to be 0.84 µM. In the data set on WM266.4 melanoma cells (Homo sapiens, WM 266-4), halving of growth (GI50) required 0.94 µM. Also, the “GI50 SRB activity in words” value with WM266.4 melanoma cells was “submicromolar activity”.

On to `O=C(c1cc(-c2ccc3c(c2)Cc2cn[nH]c2-3)c(-c2ccncc2)o1)N1CCNCC1` [1n, [4-(2,4-Dihydro-indeno[1,2-c]pyrazol-6-yl)-5-pyridin-4-yl-furan-2-yl]-piperazin-1-yl-methanone], for which the IC50 turned out to be 2.78 µM on V600EBRAF and 0.97 µM in data set [1]. In the data set with WM266.4 melanoma cells (Homo sapiens, WM 266-4), this compound had a GI50 of 1.59 µM.

Take `CN1CCN(C(=O)c2cc(-c3ccc4c(c3)Cc3cn[nH]c3-4)c(-c3ccncc3)o2)CC1` [1o, [4-(2,4-Dihydro-indeno[1,2-c]pyrazol-6-yl)-5-pyridin-4-yl-furan-2-yl]-(4-methyl-piperazin-1-yl)-methanone]: the IC50 on V600EBRAF was 7.5 µM; in data set [1], 0.73 µM. The GI50 in the data set with WM266.4 melanoma cells (Homo sapiens, WM 266-4) came out at 1.91 µM.

Turning to `CN(C)CCN1CCN(C(=O)c2cc(-c3ccc4c(c3)Cc3cnn(C)c3-4)c(-c3ccncc3)o2)CC1` [1p, [4-(2-Dimethylamino-ethyl)-piperazin-1-yl]-[4-(1-methyl-1,4-dihydro-indeno [1,2-c]pyrazol-6-yl)-5-pyridin-4-yl-furan-2-yl]-methanone], the IC50 (against V600EBRAF; in data set [1]) was over 10 µM throughout.
